Laboratory results reported in US20180296456A1, “Decapeptide-12 Modulation of Sirtuin Gene Expression in Epidermal Keratinocyte Progenitors” (Escape Therapeutics, Inc., priority 2017, published 2018).
Peptide text beside a SMILES is read from it.

How the values were obtained:
[1] = MTT cell proliferation assay, fibroblasts; type: cell-based, human; settings: human, MTT, 72 h, read-out: fibroblast proliferation rate after 72 hours
Procedure, shortened: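 Human fibroblasts and melanoblasts were seeded at 2.5×10^4/well at 37 degrees Celsius, 5 percent CO2. Proliferation was read by MTT kit per manufacturer's protocol.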

[2] = Trypan blue cell viability, 7 days, melanoblasts; type: cell-based; settings: human, relative to control, read-out: melanoblast viability after 7 days
Method: (§1) The effect of each of the decapeptides upon cell viability was also tested. In particular, cells were incubated with the decapeptide at various concentrations and then counted for viability relative to the control (untreated cells) using trypan blue. Cytotoxicity was measured according to the following formula:
(§2) [1−(# of cells in control−# of live cells in test sample)/# of cells in control]×100 percent.

SIRT4 = SIRT4 transcription, semi-quantitative RT-PCR in human epidermal progenitors; type: cell-based; settings: 72 h
SIRT6 = SIRT6 transcription, semi-quantitative RT-PCR in human epidermal progenitors; type: cell-based; settings: 72 h
Procedure, shortened: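 Following a 72 hour treatment, cells were trypsinized and RNA isolated with an RNeasy kit. cDNA was made from 2 μg RNA using oligo dT and TaqMan reagents, then SIRT6 and 18S were amplified for 34 cycles. Products ran on 1.5 percent agarose gels with ethidium bromide; densitometry gave SIRT6/18S intensity ratios compared against vehicle-treated controls.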

SIRT3 = SIRT3 transcription, semi-quantitative RT-PCR in human epidermal progenitors; type: cell-based; settings: 72 h
Procedure, shortened: (§3)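 Human neonatal keratinocyte progenitors exposed 72 h to decapeptides, 10–300 μM. Semi-quantitative RT-PCR; densitometry normalized to 18S.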

SIRT5 = SIRT5 transcription, semi-quantitative RT-PCR in human epidermal progenitors; type: cell-based; settings: 72 h
Procedure, shortened: as §3

SIRT7 = SIRT7 transcription, semi-quantitative RT-PCR in human epidermal progenitors; type: cell-based; settings: 72 h
Procedure, shortened: as §3

SIRT1 = SIRT1 transcription, semi-quantitative RT-PCR in human epidermal progenitors; type: cell-based; settings: 72 h
Procedure, shortened: as §3

[3] = Trypan blue cell viability, 7 days, epidermal progenitors; type: cell-based; settings: human, relative to control, read-out: epidermal progenitor viability after 7 days
Method: as §1, §2

[4] = Trypan blue cell viability, 7 days, fibroblasts; type: cell-based; settings: human, relative to control, read-out: fibroblast viability after 7 days
Method: as §1, §2

CCCCCCCCCCCCCCCC(=O)N[C@@H](Cc1ccc(O)cc1)C(=O)N[C@@H](CCCNC(=N)N)C(=O)N[C@@H](CO)C(=O)N[C@@H](CCCNC(=N)N)C(=O)N[C@@H](CCCCN)C(=O)N[C@@H](Cc1ccc(O)cc1)C(=O)N[C@@H](CO)C(=O)N[C@@H](CO)C(=O)N[C@@H](Cc1c[nH]c2ccccc12)C(=O)N[C@@H](Cc1ccc(O)cc1)C(N)=O [P4A, Palmitoyl-YRSRKYSSWY-amide] (HELM PEPTIDE1{[CCCCCCCCCCCCCCCC(=O)[*:2]].Y.R.S.R.K.Y.S.S.W.Y.[am]}$$$$V2.0)
viability at 72 h, 3 µM ([1]; 3 μM): 100%
viability at 72 h, 10 µM ([1]; 10 μM): 99 ± 1%
viability at 72 h, 30 µM ([1]; 30 μM): 98 ± 1%
viability at 72 h, 50 µM ([1]; 50 μM): 98 ± 1%
viability at 72 h, 100 µM ([1]; 100 μM): 97 ± 2%
viability at 72 h, 300 µM ([1]; 300 μM): 97 ± 2%
viability at 72 h, 500 µM ([1]; 500 μM): 96 ± 2%
viability at 72 h, 1000 µM ([1]; 1000 μM): 95 ± 2%
viability at 168 h, 3 µM ([2]; 3 μM): 100%
viability at 168 h, 10 µM ([2]; 10 μM): 99 ± 1%
viability at 168 h, 30 µM ([2]; 30 μM): 98.5 ± 1%
viability at 168 h, 50 µM ([2]; 50 μM): 98 ± 1%
viability at 168 h, 100 µM ([2]; 100 μM): 97 ± 2%
viability at 168 h, 300 µM ([2]; 300 μM): 96.2 ± 2%
viability at 168 h, 500 µM ([2]; 500 μM): 95.6 ± 2%
viability at 168 h, 1000 µM ([2]; 1000 μM): 94.8 ± 2%
SIRT4 transcription increase relative to control (SIRT4; 10 μM): 16 ± 1%
SIRT4 transcription increase relative to control (SIRT4; 30 μM): 16 ± 1%
SIRT4 transcription increase relative to control (SIRT4; 50 μM): 9 ± 4%
SIRT4 transcription increase relative to control (SIRT4; 100 μM): 98 ± 12%
SIRT4 transcription increase relative to control (SIRT4; 300 μM): 65 ± 1%
SIRT6 transcription increase relative to control (SIRT6; 10 μM): 24 ± 5%
SIRT6 transcription increase relative to control (SIRT6; 30 μM): 25 ± 5%
SIRT6 transcription increase relative to control (SIRT6; 50 μM): 33 ± 7%
SIRT6 transcription increase relative to control (SIRT6; 100 μM): 135 ± 10%
SIRT6 transcription increase relative to control (SIRT6; 300 μM): 85 ± 5%
SIRT3 transcription increase relative to control (SIRT3; 10 μM): 25 ± 4%
SIRT3 transcription increase relative to control (SIRT3; 30 μM): 26 ± 3%
SIRT3 transcription increase relative to control (SIRT3; 50 μM): 60 ± 4%
SIRT3 transcription increase relative to control (SIRT3; 100 μM): 152 ± 2%
SIRT3 transcription increase relative to control (SIRT3; 300 μM): 147 ± 2%
SIRT5 transcription increase relative to control (SIRT5; 10 μM): 13 ± 2%
SIRT5 transcription increase relative to control (SIRT5; 30 μM): 12 ± 2%
SIRT5 transcription increase relative to control (SIRT5; 50 μM): 10 ± 3%
SIRT5 transcription increase relative to control (SIRT5; 100 μM): 47 ± 7%
SIRT5 transcription increase relative to control (SIRT5; 300 μM): 29 ± 4%
SIRT7 transcription increase relative to control (SIRT7; 10 μM): 29 ± 6%
SIRT7 transcription increase relative to control (SIRT7; 30 μM): 33 ± 5%
SIRT7 transcription increase relative to control (SIRT7; 50 μM): 52 ± 4%
SIRT7 transcription increase relative to control (SIRT7; 100 μM): 87 ± 6%
SIRT7 transcription increase relative to control (SIRT7; 300 μM): 113 ± 2%
SIRT1 transcription increase relative to control (SIRT1; 10 μM): 18 ± 2%
SIRT1 transcription increase relative to control (SIRT1; 30 μM): 19 ± 1%
SIRT1 transcription increase relative to control (SIRT1; 50 μM): 42 ± 5%
SIRT1 transcription increase relative to control (SIRT1; 100 μM): 144 ± 5%
SIRT1 transcription increase relative to control (SIRT1; 300 μM): 184 ± 2%
viability at 168 h, 3 µM ([3]; 3 μM): 100%
viability at 168 h, 10 µM ([3]; 10 μM): 99 ± 1%
viability at 168 h, 30 µM ([3]; 30 μM): 98.2 ± 1%
viability at 168 h, 50 µM ([3]; 50 μM): 97.5 ± 1%
viability at 168 h, 100 µM ([3]; 100 μM): 96.9 ± 2%
viability at 168 h, 300 µM ([3]; 300 μM): 95.6 ± 2%
viability at 168 h, 500 µM ([3]; 500 μM): 94.3 ± 2%
viability at 168 h, 1000 µM ([3]; 1000 μM): 93.6 ± 3%
viability at 168 h, 3 µM ([4]; 3 μM): 100%
viability at 168 h, 10 µM ([4]; 10 μM): 98.9 ± 1%
viability at 168 h, 30 µM ([4]; 30 μM): 98.4 ± 1%
viability at 168 h, 50 µM ([4]; 50 μM): 98 ± 1%
viability at 168 h, 100 µM ([4]; 100 μM): 97.4 ± 2%
viability at 168 h, 300 µM ([4]; 300 μM): 96.6 ± 2%
viability at 168 h, 500 µM ([4]; 500 μM): 95.5 ± 2%
viability at 168 h, 1000 µM ([4]; 1000 μM): 94.3 ± 2%
